{"source": "paper PMC7136958", "about": "“Targeting the pregnane X receptor using microbial metabolite mimicry” (EMBO Molecular Medicine, 2020)", "assay_in_all_cases": "HDAC fluorescent activity assay", "type_in_all_cases": "biochemical", "settings_in_all_cases": "substrate Peptide (Ac), replicates", "key": {"HDAC1": {"molecular_target": "T1, HDAC1 (Homo sapiens, UniProt Q13547)", "T1 construct": "purchased Reaction Biology Corp", "T1 sequence (Q13547 whole entry)": "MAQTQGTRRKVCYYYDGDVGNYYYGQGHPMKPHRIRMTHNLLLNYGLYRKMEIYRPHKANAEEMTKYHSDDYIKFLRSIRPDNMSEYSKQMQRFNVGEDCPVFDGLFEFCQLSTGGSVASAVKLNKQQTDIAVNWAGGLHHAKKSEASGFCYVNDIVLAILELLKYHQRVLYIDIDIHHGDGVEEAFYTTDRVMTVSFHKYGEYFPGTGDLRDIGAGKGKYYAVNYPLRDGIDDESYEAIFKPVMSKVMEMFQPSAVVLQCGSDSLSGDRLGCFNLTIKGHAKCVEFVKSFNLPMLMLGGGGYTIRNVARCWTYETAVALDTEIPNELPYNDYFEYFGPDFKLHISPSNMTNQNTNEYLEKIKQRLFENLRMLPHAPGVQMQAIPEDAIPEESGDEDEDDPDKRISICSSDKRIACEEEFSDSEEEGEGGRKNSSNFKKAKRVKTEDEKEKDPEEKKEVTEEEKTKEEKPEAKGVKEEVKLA", "protocol": "(§1) The following […] assays (HDAC, SIRT1, PRMT1, PARP1, p300, pCAF) were performed by Reaction Biology Corp. FKK6 was screened at a single concentration of 10 μM in duplicate in two separate experiments. The appropriate controls for the individual assays are published. […]\n(§2) The Histone Deacetylase (HDAC) fluorescent activity assay (HDAC1-3) is based on the using 2X purified human enzyme mixed with the reaction buffer (50 mM Tris-HCl pH 8, 137 mM NaCl, 2.7 mM KCl, and 1 mM MgCl2, 1 mg/mL fresh BSA and 1% fresh DMSO) and then compounds (in 100% DMSO) are titrated in using Acoustic Technology.\n(§3) The 2X HDAC substrate is a fluorogenic acetylated peptide from p53 (residues 379 - 38 2 RHKK(Ac)AMC) which is mixed in with the enzyme-compound complex and incubated for 1-2 h at 30 °C. In the development step, a proprietary developer with trichostatin A (or TMP269) is added to stop the reaction and to generate fluorescent color which is read using an EnVision Multilabel Plate Reader (Perkin Elmer) (Ex 360 nm/ Em 460 nm). For all enzyme activity assays, the percentage of enzyme activity (relative to DMSO controls) and IC50 values were calculated using GraphPad Prism 4 program (sigmoidal dose response equations). […]\n(§4) SMCT solution (0.32 M sucrose, 10 mM Tris -HCl, 1 mM MgCl2, 1 mM CaCl2, 0.1 mM PMSF and freshly prepared 1 mM DTT at pH 7.4) once in the presence of 0.25% Triton X-100 and once in its"}, "HDAC3": {"molecular_target": "T2, HDAC3 (Homo sapiens, UniProt O15379)", "T2 construct": "purchased Reaction Biology Corp", "T2 sequence (O15379 whole entry)": "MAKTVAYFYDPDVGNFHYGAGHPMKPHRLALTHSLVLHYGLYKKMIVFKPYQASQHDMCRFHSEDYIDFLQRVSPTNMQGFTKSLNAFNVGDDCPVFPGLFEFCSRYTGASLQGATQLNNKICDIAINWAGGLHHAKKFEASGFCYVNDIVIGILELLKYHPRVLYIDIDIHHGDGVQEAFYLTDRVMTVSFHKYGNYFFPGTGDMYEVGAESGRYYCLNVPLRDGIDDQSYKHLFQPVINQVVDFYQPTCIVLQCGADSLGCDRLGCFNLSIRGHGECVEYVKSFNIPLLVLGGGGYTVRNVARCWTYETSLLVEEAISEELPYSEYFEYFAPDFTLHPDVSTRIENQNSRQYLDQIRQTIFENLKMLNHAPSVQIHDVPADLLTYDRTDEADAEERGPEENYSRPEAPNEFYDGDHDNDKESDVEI", "T2 sequence (Q9Y618 395-489 partner limits assumed)": "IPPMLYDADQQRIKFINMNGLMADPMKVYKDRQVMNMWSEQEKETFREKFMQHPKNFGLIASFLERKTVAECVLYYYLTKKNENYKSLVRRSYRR", "protocol": "as §1, §2, §3, §4"}, "HDAC2": {"molecular_target": "T3, HDAC2 (Homo sapiens, UniProt Q92769)", "T3 construct": "purchased Reaction Biology Corp", "T3 sequence (Q92769 whole entry)": "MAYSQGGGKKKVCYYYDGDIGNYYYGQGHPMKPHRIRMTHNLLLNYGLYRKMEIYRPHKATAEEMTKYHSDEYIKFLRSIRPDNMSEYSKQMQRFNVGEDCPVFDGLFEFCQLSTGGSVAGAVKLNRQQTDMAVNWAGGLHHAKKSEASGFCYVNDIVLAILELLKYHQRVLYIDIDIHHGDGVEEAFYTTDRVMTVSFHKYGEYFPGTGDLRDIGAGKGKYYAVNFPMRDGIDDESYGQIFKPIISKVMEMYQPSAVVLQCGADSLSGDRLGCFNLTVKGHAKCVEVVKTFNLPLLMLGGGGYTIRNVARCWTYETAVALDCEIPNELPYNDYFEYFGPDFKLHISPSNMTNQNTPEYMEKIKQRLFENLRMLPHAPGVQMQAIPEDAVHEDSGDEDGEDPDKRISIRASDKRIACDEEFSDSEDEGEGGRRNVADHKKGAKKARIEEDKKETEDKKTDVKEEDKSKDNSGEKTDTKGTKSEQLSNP", "protocol": "as §1, §2, §3, §4"}, "[1]": {"settings": "read-out: % Enzyme Activity to DMSO controls"}}, "note": "Where “and” joins values, the source holds several entries; their conditions need not be identical. Equal values may be shown once."}
{"compound": "C#CCC(O)(c1ccncc1)c1cc2ccccc2n1S(=O)(=O)c1ccccc1", "note": "(stereo not drawn) [FKK6]", "values": [{"measurement": "% Enzyme Activity to DMSO controls", "setting": "HDAC1; 10 μM", "result": "101.46% and 89.76% and 86.7%"}, {"measurement": "remaining activity at 10 µM", "setting": "HDAC1; [1]", "result": 106, "unit": "%"}, {"measurement": "% Enzyme Activity to DMSO controls", "setting": "HDAC3; 10 μM", "result": "116.9% and 114.05% and 107.82%"}, {"measurement": "remaining activity at 10 µM", "setting": "HDAC3; [1]", "result": 122, "unit": "%"}, {"measurement": "% Enzyme Activity to DMSO controls", "setting": "HDAC2; 10 μM", "result": "78.19% and 83.24% and 88.71%"}, {"measurement": "remaining activity at 10 µM", "setting": "HDAC2; [1]", "result": 86.3, "unit": "%"}]}
